In patent US20170307595A1, “METHODS AND DEVICES TO STUDY METABOLISM” (The General Hospital Corporation, priority 2014, published 2017):
pIC50: −log10 of the molar value.

Legend:
[1] = cited from earlier work; for Cmax: oral uptake of tegafur-uracil (UFT)
rat primary hepatocytes [2] = assay: Mass spectrometry of drug metabolism in single chamber device with hepatocytes alone; conditions: from tegafur+uracil
Source text: (§2) Tegafur, 5-FU, and Uracil concentrations in media were quantified using an LC/MS-MS 3200 QTRAP Hybrid Triple Quadrupole Linear Ion Trap mass spectrometer (AB SCIEX, Foster City, Calif.) coupled to a 1200 Series Binary LC System (Agilent Technologies, Santa Clara, Calif.). A standard solution of each analyte was directly infused into the mass spectrometer, which was operating under negative mode with the following settings: Curtain gas (CUR) at 30.0, collision gas (CAD) at 5, IonSpray Voltage (IS) at −4500.0, the temperature (TEM) of the turbo gas in the TurbolonSpray at 400° C. and both Ion Source Gases (GS1 and GS2) at 60.0. Using Analyst software (Version 1.5, AB Sciex), a ‘Compound Optimization’ routine was performed to identify multiple reaction monitoring (MRM) precursor/product ion transition pairs for each analyte that maximizes peak intensity. The tunable MS-specific parameters for the optimization were the declustering potential (DP), the entrance potential (EP), the collision energy (CE), as well as the collision cell exit potential (CXP).
(§3) MS data acquisition for each sample was achieved by injecting 10 μL, of media through a liquid chromatographic (LC) separation phase followed by simultaneous detection of all three MRM transitions, each with a dwell time of 500 ms. The LC method utilized a Synergy Hydro-RP (reverse phase) column (150 mm×2 mm inner 4 μm 80 Å particles; Phenomenex, Torrance, Calif.), which was kept at ambient temperature. The aqueous mobile phase A was HPLC grade water with 0.1% formic acid and the organic phase B was HPLC grade methanol with 0.1% formic acid. The elution gradient was set as: 0 minutes-3% B, 3 minutes-3% B, 12 minutes-95% B, 15 minutes-95% B, 18 minutes-3% B, and 25 minutes-3% B.

MCF-7 cells = assay: MTT toxicity experiment in 96-well plates, MCF-7; type: cell-based, human
Description: (§1) Toxicity experiments were performed in 96-well plates. Briefly, 96-well plates were coated with 50 μg/mL fibronectin for 1 hour at 37° C. Freshly isolated rat hepatocytes and MCF-7 cells were seeded at 50,000 cells/well in 100 μL of media and incubated overnight at 37° C., 10% CO2. Hepatocytes were seeded in hepatocyte maintenance media while MCF-7 cells were seeded in DMEM. Media was replaced and cells were exposed to tegafur or 5-FU+Uracil in Williams E media at 37° C., 10% CO2. Uracil concentration was maintained at 100 μM, while 5-FU concentration varied. After 24 hours of exposure, media were removed and cells were incubated with 0.5 mg/mL MTT reagent for 2 hours. Media were removed from the wells and 100 μL DMSO was added to each well and mixed on a shaker for 10 minutes. The absorbance was measured at 570 nm and IC-50 values were obtained using Sigmaplot software with a sigmoidal 4-parameter fit.

rat primary hepatocytes [3] = conditions: 24 h, 100 μM
Source text: as §2, §3

[4] = tested on: MCF-7 cells co-cultured with rat primary hepatocytes; assay: LDH release, hepatocyte/MCF-7 co-culture in two-chamber microfluidic device; type: cell-based, human; conditions: MCF-7 exposure to 5-FU produced by metabolic conversion of tegafur, 24 hours
Source text: Rat primary hepatocytes and human breast cancer cells (MCF-7) were co-cultured in the device of Example 1 to create a hepatocyte-cancer model for drug screening. In the two-chamber device, intercellular communication between hepatocytes and cancer cells is achieved without any flow within the devices. In the two-chamber device, both cell types were independently seeded into their respective chambers in the device using inlet ports on fibronectin-coated devices. Rat primary hepatocytes and MCF-7 cells were seeded into the first (bottom) and second (top) chambers, respectively. Control monocultures were seeded in a single chamber device. The co-culture model created provides a microenvironment with cells cultured in close proximity and relatively small volume. Co-culture of hepatocytes and MCF-7 cells was compared in 12-well plates against a two-chamber device. […]
LDH in the supernatant was evaluated using CytoTox 96 Non-Radioactive Cytotoxicity Assay (Promega Cat No. G1780). […]
At the end of incubation, 50 μL stop solution was added and absorbance measured at 490 nm.
LDH from culture supernatant is normalized as LDH from cultures exposed to 100 μM tegafur+100 μM uracil to LDH from cultures exposed to vehicle control. […] Percentage cell death was calculated as LDH in media/LDH in 10,000 MCF-7 cells.

Rat hepatocytes = assay: MTT toxicity experiment in 96-well plates, rat hepatocytes; type: cell-based
Description: as §1

[5] = 100 μM, inferred from IC-50 values

| decrease of concentration within the media (rat primary hepatocytes [3]) [%] | SMILES | half-life in circulation in the human body [1] [min] | fraction of 5-FU produced cleared by DPD activity ([1]; human) [%] | Cmax ([1]; human) [µM] | temporal profile of 5-FU production (rat primary hepatocytes [2]) | toxicity to MCF-7 cells at 100 μM (MCF-7 cells; [5]) | pIC50 (MCF-7 cells; Homo sapiens, MCF7, MCF-7, 24 hours exposure, MTT, uracil 100 μM where present) | MCF-7 cell death (LDH in media/LDH in 10,000 MCF-7 cells) [4] [%] | toxicity to hepatocytes at 100 μM (Rat hepatocytes; [5]) | pIC50 (Rat hepatocytes; Hepatocyte, rat hepatocytes, 24 hours exposure, MTT, uracil 100 μM where present) |
| --- | --- | --- | --- | --- | --- | --- | --- | --- | --- | --- |
|  | O=c1[nH]cc(F)c(=O)[nH]1 [5-FU, 5-fluorouracil] | 30 | ~80 | 0.847 | increase in production up to 8 hours and a subsequent decrease |  |  |  |  |  |
| ~75 | O=c1[nH]c(=O)n(C2CCCO2)cc1F (stereo not drawn) [Tegafur] |  |  | 31.2 |  | not toxic | 3.47 | 12.4±1.6 | not toxic | < 2.92 |
| ~75 | O=c1cc[nH]c(=O)[nH]1 [uracil, Uracil] |  |  |  |  |  |  |  |  |  |
